Source: patent publication EP1204866B1, “IMMUNOASSAY FOR PESTICIDES AND THEIR DEGRADATION PRODUCTS” (priority 1999, dated 2001)
“And” between values parts separate entries of the source, which are not always exact repeats. Identical values can stand only once. “Also recorded” adds a separate entry of the source. Each block holds one compound with its values, some of them ahead of it.

Legend:
HYB 273-1 = assay: competitive ELISA (immunoassay) for BAM with monoclonal antibody on hapten-coated microtitre plates; type: binding, mice
Procedure: The cross reactivity of an assay is a measure of its specificity for the analyte relative to similar or related compounds. It is useful in assessing its accuracy in crude samples with several potential haptens. Standard curves based on the 4-parameter-logistic equation (eq 1) were generated for a series of analytes (Table 3) in the range 100 to 0 mg/L (10-fold titrations). The IC50 value (C*) for each analyte was then compared with the IC50 of BAM (C) in equation 3. CR = ((C)/(C*)) × 100% [formula] • CR: cross-reactivity [%] • C: value of IC50 for BAM [µg/L] • C*: value of IC50 for cross-reacting analyte [µg/L]
Standards were used to generate comparative standard curves. The standards were added to hapten-coated plates followed by a known amount of antibody, such as HYB 273-1 in buffer. The plate was incubated for 1 hour, washed, and incubated with RαM^HRP, an enzyme label and incubated for 1 hour. After extensive washing, the enzyme substrate TMB-Plus was added. The colour development was stopped using acid and the absorbance read at 450 nm.
The standards were used to generate a semi-log graph based on the 4-parameter-logistic method (Rodbard, 1974: equation 1). Y = ((A-D))/([1+(((X)/(C)))^B]) + D [formula] • X: concentration of analyte (µg/L). • Y: absorbance at 450 nm (A450). • A: maximum absorbance (upper asymptote). • D: minimum absorbance (lower asymptote). • C: midpoint between A and D. Extrapolation to x-axis yields the value of IC50 (µg/L). • B: slope for the transition between A and D
The signals were normalised according to equation 2 %(B)/(B0) = (A-Axs)/(A0 -Axs) × 100 [formula] • B : concentration of bound antibody and • B0 : concentration of bound antibody in the absence of analyte.
On the plot, 100 % corresponds to the absorption of the zero control (A0: 0 µg/L) and 0 % corresponds to the absorption of an excess control (Axs: 100 µg/L). The normalised signals were plotted vs. BAM concentration and the four-parameter-logistic equation (eq 1) was fitted to the experimental points.
i) Passive adsorption: A MaxiSorp™ microtitre plate was filled by a stationary dispensor with 200 µL/well BAM-OA (16.7 ng/mL) in coating buffer. After coating over night at 4°C the plate was washed 4 times with de-ionised water and dried 30 min at 37°C. The plate was either used immediately or sealed with tape lid and stored at room temperature in the dark until use.
A PolySorp™microtitre plate was filled by a stationary dispensor with 200 µL/well BAM-OA-AQ (50 ng/mL) in 0.1 × PBS. After being exposed to uv-light (300-400 nm) at 34°C for 30 min, the plate was washed 4 times with de-ionised water and dried 30 min at 37°C. […]
Standards (in Milli-Q® water) and samples (150 µL) were added to the hapten-coated plate followed by the addition of 50 µL antibody (HYB 273-1) diluted in 10 × PBST (66.7 ng/mL). […] The colour development was stopped after 10 minutes by adding 50 µL/well 1 M H2SO4 and the absorbance was read at 450 nm. […] Y = ((A-D))/([1+(((X)/(C)))^B]) + D [formula] • X: concentration of analyte (µg/L). • Y: absorbance at 450 nm (A450). • A: maximum absorbance (upper asymptote). • D: minimum absorbance (lower asymptote). • C: midpoint between A and D. Extrapolation to x-axis yields the value of IC50 (µg/L). • B: slope for the transition between A and D
These calculations were executed automatically by the software package SOFTmax® PRO Version 2.2 upon reading the microtitre plates. […]

[1] = tested on: Balb/c×CF1 F1-hybrid mice; assay: immunisation of mice with hapten-polymer carrier complex and generation of monoclonal antibodies; type: in vivo; settings: hapten bound to polymer carrier (ovalbumin)
Procedure: Live mice were primed for immunisation by an intraperitoneal injection of live BCG-vaccine one month before immunisation. The antigen (hapten-OA complex), once adsorbed onto Al(OH)3, was injected intraperitonally and test bleedings were collected. When antibody titre's exceeded 1:2000, mice were considered ready for fusion and the method described by Köhler and Milstein (1975) was employed with minor modifications. Monoclonal antibodies were selected on basis of titre, affinity and specificity. Selected clones were recloned until monoclonality and stored frozen at -80 °C.
Ten to twelve weeks old female Balb/c×CF1 F1-hybrid mice were used for immunisation. 5 One month before immunisation they were primed with 0.2 mL live BCG-vaccine intraperitonally. The antigen ([…] carrier/immunogen) was absorbed onto Al(OH)3 as an adjuvant. The total volume of vaccine per immunisation was 200 µL, containing […] of antigen and […] of adjuvant. The antigen was injected intraperitonally with 2-weeks intervals. Test bleedings were collected 10 days after immunisation and assayed in ELISA.
When antibody titre's exceeded 1:2000, mice were regarded ready for fusion. The procedure as described by Köhler and Milstein (1975) was employed with minor modifications. Monoclonal antibodies were selected on basis of titre, affinity and specificity. […]

Compound: NC(=O)c1ccc(Cl)cc1Cl [2,4-dichlorobenzamide]
cross-reactivity (HYB 273-1; IC50 of BAM divided by IC50 of analyte x 100, analytes assayed up to 100 mg/L, antibody HYB 273-1): 3.8%

IC50 (HYB 273-1; covalently immobilised (photocoupled) plates, PolySorp, BAM-OA-AQ, Figure 3A): 0.189 ng/mL and 0.19 ng/mL | IC50 (HYB 273-1; passively adsorbed plates, MaxiSorp, BAM-OA, Figure 3B): 0.144 ng/mL and 0.14 ng/mL
Compound: NC(=O)c1c(Cl)cccc1Cl [BAM, 2,6-dichlorobenzamide]
DL15 (detection limit, analyte concentration giving a 15 % decrease in maximum signal) (HYB 273-1; photo catalysed covalent immobilisation, Figure 3A): 0.02 µg/L | DL15 (detection limit, analyte concentration giving a 15 % decrease in maximum signal) (HYB 273-1; surfaces immobilised by passive adsorption, Figure 3B): 0.045 µg/L

Compound: N-(5-carboxypentyl)-2,4-dichloro-3-amido aniline [EQ-0031]
immunoresponse on immunisation [1]: good responses were generated and several clones were produced; also recorded: generated good immunoresponse
